Source: patent publication US4623661A, “Lipoxygenase inhibiting compounds” (Abbott Laboratories, priority 1985, dated 1986)

Experiments:
Type in all cases: biochemical
15-lipoxygenase = molecular target: T1, 15-lipoxygenase (Glycine max, UniProt P08170); experiment: 15-lipoxygenase inhibition (15-lipoxygenase obtained from soybean); conditions: for inhibition at 10 µM: read-out: % Inhibition at Indicated Concentration, 15-lipoxygenase, 10 uM; for inhibition at 100 µM: read-out: % Inhibition at Indicated Concentration, 15-lipoxygenase, 100 uM
T1 construct: 15-lipoxygenase obtained from soybean; from tissue; host or cells: soybean
T1 sequence (P08170 1-839): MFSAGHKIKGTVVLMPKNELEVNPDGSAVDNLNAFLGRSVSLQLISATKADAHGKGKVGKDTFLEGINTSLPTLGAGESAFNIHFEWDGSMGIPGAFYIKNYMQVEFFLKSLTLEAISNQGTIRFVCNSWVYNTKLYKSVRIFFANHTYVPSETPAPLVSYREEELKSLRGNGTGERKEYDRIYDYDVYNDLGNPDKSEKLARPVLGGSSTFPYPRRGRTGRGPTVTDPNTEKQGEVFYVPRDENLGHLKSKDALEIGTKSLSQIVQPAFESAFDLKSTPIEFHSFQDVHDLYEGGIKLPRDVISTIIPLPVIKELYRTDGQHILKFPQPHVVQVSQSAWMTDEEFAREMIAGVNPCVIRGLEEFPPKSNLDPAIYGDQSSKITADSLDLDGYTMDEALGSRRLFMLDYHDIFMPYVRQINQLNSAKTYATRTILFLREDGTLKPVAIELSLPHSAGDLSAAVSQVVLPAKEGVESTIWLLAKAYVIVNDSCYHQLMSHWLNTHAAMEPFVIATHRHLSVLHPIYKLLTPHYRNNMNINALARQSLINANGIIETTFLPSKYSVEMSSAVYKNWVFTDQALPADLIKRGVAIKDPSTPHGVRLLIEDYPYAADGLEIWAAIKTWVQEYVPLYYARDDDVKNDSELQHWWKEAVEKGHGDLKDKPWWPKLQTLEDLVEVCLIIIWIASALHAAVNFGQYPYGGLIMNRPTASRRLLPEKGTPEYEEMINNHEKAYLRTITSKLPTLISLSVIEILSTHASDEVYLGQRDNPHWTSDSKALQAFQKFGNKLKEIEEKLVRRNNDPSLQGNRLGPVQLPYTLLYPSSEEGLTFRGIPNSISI
Method: (§1) The compounds of this invention are potent inhibitors of 5-, 12- and 15-lipoxygenase. An assay to determine 5-lipoxygenase activity was performed in incubations containing various concentrations of the test compound and the 20,000 G supernatant from 7.5×10^6 homogenized RBL-1 cells. Reactions were initiated by the addition of radiolabeled arachidonic acid and terminated by acidification and ether extraction. Reaction products were separated from nonconverted substrate by thin layer chromatography and measured by liquid scintillatiton spectroscopy. Inhibition of 5-lipoxygenase activity was calculated as the ratio of the amounts of product formed in the presence and absence of inhibitor.
(§2) The inhibitory activities of the compounds of this invention against 12- and 15-lipoxygenase can be determined in the foregoing assay in which 12-lipoxygenase obtained from human platelets, or 15-lipoxygenase obtained from soybean, is substituted for the 5-lipoxygenase-containing cell supernatant fraction.

12-lipoxygenase = molecular target: T2, 12-lipoxygenase (Homo sapiens, UniProt P18054); experiment: 12-lipoxygenase inhibition (12-lipoxygenase obtained from human platelets); conditions: for inhibition at 10 µM: read-out: % Inhibition at Indicated Concentration, 12-lipoxygenase, 10 uM; for inhibition at 100 µM: read-out: % Inhibition at Indicated Concentration, 12-lipoxygenase, 100 uM
T2 construct: 12-lipoxygenase obtained from human platelets; from tissue; host or cells: human platelets
T2 sequence (P18054 1-663): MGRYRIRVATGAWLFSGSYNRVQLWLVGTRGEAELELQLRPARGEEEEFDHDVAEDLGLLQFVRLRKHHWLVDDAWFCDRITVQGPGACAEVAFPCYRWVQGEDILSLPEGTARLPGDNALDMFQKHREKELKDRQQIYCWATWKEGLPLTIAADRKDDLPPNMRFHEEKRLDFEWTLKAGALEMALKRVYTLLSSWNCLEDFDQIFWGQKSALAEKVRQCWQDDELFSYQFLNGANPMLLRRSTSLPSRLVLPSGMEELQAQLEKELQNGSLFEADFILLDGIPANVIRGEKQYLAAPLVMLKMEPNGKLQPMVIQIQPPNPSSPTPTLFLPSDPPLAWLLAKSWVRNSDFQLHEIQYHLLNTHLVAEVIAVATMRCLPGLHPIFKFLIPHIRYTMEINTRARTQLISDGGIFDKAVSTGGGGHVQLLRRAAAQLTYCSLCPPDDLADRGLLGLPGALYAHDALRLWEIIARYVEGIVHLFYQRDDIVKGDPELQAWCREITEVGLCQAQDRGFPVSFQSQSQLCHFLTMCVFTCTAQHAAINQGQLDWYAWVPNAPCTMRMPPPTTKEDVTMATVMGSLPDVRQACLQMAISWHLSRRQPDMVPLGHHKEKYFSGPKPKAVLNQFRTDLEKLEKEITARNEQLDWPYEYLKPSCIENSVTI
Method: as §1, §2

5-lipoxygenase = molecular target: T3, 5-lipoxygenase (Rattus norvegicus, UniProt P12527); experiment: 5-Lipoxygenase IC50 determination (20,000 G supernatant from homogenized RBL-1 cells, radiolabeled arachidonic acid); conditions: RBL-1 cell 20,000 G supernatant; linear regression of % inhibition vs log concentration
T3 construct: 20,000 G supernatant from 7.5×10^6 homogenized RBL-1 cells; endogenous in cells; host or cells: RBL-1 cells (20,000 G supernatant of homogenate)
T3 sequence (P12527 1-673): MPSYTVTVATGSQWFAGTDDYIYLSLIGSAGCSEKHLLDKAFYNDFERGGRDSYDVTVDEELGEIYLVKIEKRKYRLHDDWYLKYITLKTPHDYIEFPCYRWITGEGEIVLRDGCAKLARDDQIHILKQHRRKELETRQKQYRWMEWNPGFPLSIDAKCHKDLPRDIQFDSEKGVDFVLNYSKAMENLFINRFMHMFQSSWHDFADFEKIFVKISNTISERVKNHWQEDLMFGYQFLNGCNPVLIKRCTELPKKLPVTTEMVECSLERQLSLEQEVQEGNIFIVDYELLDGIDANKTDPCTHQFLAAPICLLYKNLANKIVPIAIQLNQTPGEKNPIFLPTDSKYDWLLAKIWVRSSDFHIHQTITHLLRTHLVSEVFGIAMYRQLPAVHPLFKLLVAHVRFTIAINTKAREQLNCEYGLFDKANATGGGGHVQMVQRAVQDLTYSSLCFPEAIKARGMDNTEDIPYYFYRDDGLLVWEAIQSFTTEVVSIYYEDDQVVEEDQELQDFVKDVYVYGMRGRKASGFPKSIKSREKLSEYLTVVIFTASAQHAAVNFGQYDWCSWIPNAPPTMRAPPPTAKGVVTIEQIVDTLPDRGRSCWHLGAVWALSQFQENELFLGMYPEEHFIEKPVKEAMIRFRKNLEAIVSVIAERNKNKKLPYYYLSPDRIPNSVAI
Method: Reactions were initiated by the addition of radiolabeled arachidonic acid and terminated by acidification and ether extraction. Reaction products were separated from nonconverted substrate by thin layer chromatography and measured by liquid scintillatiton spectroscopy. Inhibition of 5-lipoxygenase activity was calculated as the ratio of the amounts of product formed in the presence and absence of inhibitor.

| SMILES | inhibition at 10 µM (15-lipoxygenase) | inhibition at 100 µM (15-lipoxygenase) | inhibition at 10 µM (12-lipoxygenase) | inhibition at 100 µM (12-lipoxygenase) | IC50 (5-lipoxygenase) |
| --- | --- | --- | --- | --- | --- |
| CN(O)C(=O)C=Cc1ccc(-c2ccccc2)cc1 [Example 1, N-Methyl 3-(4-biphenyl)acrylohydroxamic acid] | 52% | 74% | 63% | 68% |  |
| CN(O)C(=O)C=Cc1cccc(-c2ccccc2)c1 [Example 2, N-methyl-3-(3-biphenyl)-acrylohydroxamic acid] | 43% | 85% | 99% | 96% |  |
| O=C(NO)c1ccc(-c2ccccc2)cc1 [Example 7, 4-biphenyl hydroxamic acid] | 0% | 30% | 86% | 97% | 4.1 µM |
| O=C(NO)c1cccc(-c2ccccc2)c1 [Example 8, 3-biphenyl hydroxamic acid] | 33% | 33% |  |  | 6 µM |
| O=C(NO)c1ccc2c(ccc3ccccc32)c1 [Example 12, 2-Phenanthrylhydroxamic acid] |  |  |  |  | 1.9 µM |
| O=C(NO)c1ccc2ccc3ccccc3c2c1 [Example 13, 3-Phenanthryl hydroxamic acid] | 25% | 39% |  |  | 1.2 µM |
